IC50 and Kd data for two compounds are collected here from publication PMC9564123, “Identification of Monobenzone as a Novel Potential Anti-Acute Myeloid Leukaemia Agent That Inhibits RNR and Suppresses Tumour Growth in Mouse Xenograft Model” (Cancers, 2022).

Structures are written as SMILES.

For experiment [1], the target named is T1, recombinant RNR (RRM1 + RRM2) (Homo sapiens, UniProt P31350).
T1 construct: with Ribonucleoside-diphosphate reductase large subunit
T1 sequence (P31350 1-389): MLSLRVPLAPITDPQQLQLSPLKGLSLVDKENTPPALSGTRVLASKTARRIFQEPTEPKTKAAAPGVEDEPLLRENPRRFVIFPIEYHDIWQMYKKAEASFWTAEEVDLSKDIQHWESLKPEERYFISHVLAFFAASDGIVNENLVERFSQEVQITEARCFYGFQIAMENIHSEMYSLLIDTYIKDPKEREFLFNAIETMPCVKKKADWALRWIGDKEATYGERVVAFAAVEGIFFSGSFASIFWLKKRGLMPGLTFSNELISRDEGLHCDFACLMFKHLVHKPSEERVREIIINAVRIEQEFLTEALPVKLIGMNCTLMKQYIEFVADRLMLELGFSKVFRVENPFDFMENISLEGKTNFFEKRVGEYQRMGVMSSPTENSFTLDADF
T1 sequence (P23921 1-792 partner): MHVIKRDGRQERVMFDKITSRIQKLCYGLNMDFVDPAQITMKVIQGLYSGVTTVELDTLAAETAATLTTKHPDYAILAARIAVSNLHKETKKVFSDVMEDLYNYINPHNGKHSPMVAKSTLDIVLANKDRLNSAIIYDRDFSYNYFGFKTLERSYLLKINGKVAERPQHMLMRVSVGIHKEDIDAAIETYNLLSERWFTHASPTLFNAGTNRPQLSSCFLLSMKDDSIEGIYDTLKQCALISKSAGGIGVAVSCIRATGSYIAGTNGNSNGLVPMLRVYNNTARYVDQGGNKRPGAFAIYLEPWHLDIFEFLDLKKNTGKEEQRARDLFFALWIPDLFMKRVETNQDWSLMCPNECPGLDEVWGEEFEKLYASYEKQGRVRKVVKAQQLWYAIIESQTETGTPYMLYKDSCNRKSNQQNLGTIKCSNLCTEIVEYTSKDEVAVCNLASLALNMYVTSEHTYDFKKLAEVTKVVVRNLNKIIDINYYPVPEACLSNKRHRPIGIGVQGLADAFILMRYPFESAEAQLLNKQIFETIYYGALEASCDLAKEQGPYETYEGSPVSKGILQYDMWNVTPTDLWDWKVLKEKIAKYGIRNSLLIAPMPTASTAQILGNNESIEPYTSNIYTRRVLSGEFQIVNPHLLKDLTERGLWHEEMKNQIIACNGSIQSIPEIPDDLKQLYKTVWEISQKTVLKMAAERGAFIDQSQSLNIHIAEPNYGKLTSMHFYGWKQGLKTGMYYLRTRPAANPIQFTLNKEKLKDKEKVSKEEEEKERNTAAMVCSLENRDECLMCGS
Briefly: recombinant RNR activity assay, CDP to dCDP conversion. The class given is biochemical.

For experiment [2], the target named is T2, RRM2 (Homo sapiens, UniProt P31350).
T2 construct: recombinant purified RRM2, lysine-labelled for MST
T2 sequence (P31350 1-389): T1 sequence (P31350 1-389)
Nature of the experiment: microscale thermophoresis. The class given is binding. A general note: MST reads how a fluorescent partner responds to local heating, with and without ligand.

`NC(=O)NO` [HU, hydroxyurea, reference compound]: the IC50 (commonly the concentration needed to halve the response being measured) in experiment [1] is 29.8 µM.
On to `Oc1ccc(OCc2ccccc2)cc1` [MB, monobenzone], for which, in experiment [1], the 50% inhibitory concentration (IC50) turned out to be 0.25 µM. In addition, the dissociation constant Kd – broadly, the concentration at which binding is half-saturated – in experiment [2] stood at 22.5 ± 14 µM.
